# Laboratory results reported in the NIST ThermoML archive (doi:10.1021/je201032t).
# ± gives the expanded uncertainty stated by the source.
# What was measured:
# [1] = Liquid, Ebulliometric method (Recirculating still)
# [2] = refractive index (Na D-line) (dimensionless); details: 293.15 K; 101.33 kPa; Liquid; Standard Abbe refractometry
SMILES,vapor or sublimation pressure ([1]; 323 K),vapor or sublimation pressure ([1]; 343.4 K),vapor or sublimation pressure ([1]; 353.2 K),vapor or sublimation pressure ([1]; 363.1 K),vapor or sublimation pressure ([1]; 369.2 K),refractive index [2]
CCCO [propan-1-ol],12.11 ± 1.2 kPa,32.82 ± 1.2 kPa,50.82 ± 1.3 kPa,76.67 ± 1.4 kPa,96.66 ± 1.4 kPa,1.382 ± 0.0007
CCCCCCCCCCCC [dodecane],0.12 kPa,0.46 kPa,0.73 ± 1.2 kPa,1.31 ± 1.2 kPa,1.76 ± 1.2 kPa,1.4192 ± 0.0007
